Where two headings read alike, the source gives them in different places.
Key:
subtilisin [1] = test: Example 1: incubation of subtilisin with or without PBA at pH 7.5 and 37 degrees, activity measured after 1:500 dilution (succinyl-L-Ala-L-Ala-L-Pro-L-Phe-p-nitroanilide hydrolysis, 410 nm); type: biochemical; details: pH 7.5, 37 degrees celsius, even in the presence of 10 mm EDTA
Protocol: Enzyme activity was measured after a 1:500 dilution by following the hydrolysis of the substrate succinyl-L-Ala-L-Ala-L-Pro-L-Phe-P-nitroanilide. The reaction was monitored by following the release of p-nitroaniline spectrophotometrically at 410 nm. One unit of activity is defined as the amount of enzyme that produces A410/min of 1.0 at 25'C. in 0.1M Tris pH 8.6, […] substrate.

subtilisin [2] = details: inhibitor of subtilisin, read-out: inhibition constant (KI), cited from earlier work

| Compound | stabilization of subtilisin (in words) (subtilisin [1]) | Ki (subtilisin [2]; listed as Phenyl boronic acid) [µM] | Ki (subtilisin [2]) [µM] | Ki (subtilisin [2]; listed as Leupeptin) [µM] |
| --- | --- | --- | --- | --- |
| OB(O)c1ccccc1 [phenylboronic acid] | very effective agent for stabilization of subtilisin | 160 | 230 |  |
| CC(=O)N[C@@H](CC(C)C)C(=O)N[C@@H](CC(C)C)C(=O)N[C@H](C=O)CCCNC(=N)N [leupeptin] |  |  | 160 | 230 |
| CCCCB(O)O [butane boronic acid] |  |  | 7200 |  |
